Results taken from patent publication US20250213550A1, “COMPOUNDS AND METHODS FOR TREATING INFLAMMATORY BOWEL DISEASE” (Gilead Sciences, Inc., priority 2023, published 2025).

System: OATP/P-gp
Experiment: Drug-drug interaction: mixed OATP/P-gp inhibitor CsA on PK of Compound A
Assay type: in vivo, human
Details: co-administration of Compound 1 600 mg with CsA 600 mg, fasted
Description: A Phase 1, open-label, single-center, multiple-cohort study was conducted to evaluate the effect of a mixed OATP/P-gp inhibitor (cyclosporine A; CsA) or food on the PK of Compound 1, the effect of Compound 1 on the PK of midazolam (MDZ), the effect of Compound 1 on the PK of OATP/CYP3A/BCRP substrates using atorvastatin (ATV), pravastatin (PRA), and rosuvastatin (ROS), and the effect of Compound 1 on the PK of a representative combined oral contraceptive (drospirenone/ethinyl estradiol; DRSP/EE), in healthy participants. 70 participants ages 18 to 55 years (inclusive) and having BMI of ≥18.0 kg/m^2 and ≤30.0 kg/m^2 were enrolled. For Cohorts 1-3, there were an approximately even distribution of healthy participants assigned male at birth and nonpregnant, nonlactating participants assigned female at birth. Cohort 4 included only healthy, nonpregnant, nonlactating participants assigned female at birth.
Treatment C: Single dose of Compound 1 600 mg, administered in the AM, under fasted conditions with a single dose of CsA 600 mg […]
Concentrations of Compound 1 and its active metabolites Compound A and Compound B, MDZ and its metabolite 1-OH-MDZ, ATV and its metabolite 2-OH-ATV, PRA, ROS, DRSP, and EE in plasma PK samples were determined by validated high performance liquid chromatography tandem mass spectrometry (LC-MS/MS) bioanalytical methods.

Cn1ccc2c([C@H](Nc3cc(Cl)c4ncc(C#N)c(NCC(C)(C)C)c4c3)c3cn(C45CC(C4)C5)nn3)cccc2c1=O [Compound A]
increase of Compound A AUCinf: 122% | increase of Compound A Cmax: 27%
